Experimental data: BigSolDB 2.1

CC(C)Oc1ccc2c(=O)c(-c3ccccc3)coc2c1
solubility (mole fraction)
Settings | 278.15 K | 283.15 K | 288.15 K | 293.15 K | 298.15 K | 303.15 K | 308.15 K | 313.15 K | 318.15 K | 323.15 K
in DMAc | 0.0395 | 0.0454 | 0.0534 | 0.062 | 0.0721 | 0.0841 | 0.0981 | 0.113 | 0.133 | 0.152
in DMF | 0.0245 | 0.0301 | 0.0352 | 0.0431 | 0.0506 | 0.0622 | 0.0718 | 0.0884 | 0.103 | 0.126
in acetone | 0.00852 | 0.0102 | 0.0128 | 0.0157 | 0.0193 | 0.0241 | 0.0291 | 0.0363 | 0.0441 | 0.056
in acetonitrile | 0.00246 | 0.00336 | 0.00441 | 0.0056 | 0.00731 | 0.00942 | 0.0122 | 0.0159 | 0.0212 | 0.0282
in dichloromethane | 0.0667 | 0.0735 | 0.0809 | 0.0903 | 0.0988 | 0.108 | 0.119 | – | – | –
in ethanol | 0.000992 | 0.00141 | 0.00187 | 0.00239 | 0.00301 | 0.00409 | 0.00521 | 0.00696 | 0.00872 | 0.012
in methanol | 0.000841 | 0.00109 | 0.0015 | 0.00195 | 0.00244 | 0.0032 | 0.00391 | 0.00505 | 0.00623 | 0.00823
in methyl acetate | 0.00948 | 0.0116 | 0.0142 | 0.0174 | 0.0213 | 0.0264 | 0.0321 | 0.039 | 0.0479 | 0.059
in n-butanol | 0.00166 | 0.00215 | 0.00294 | 0.00375 | 0.00494 | 0.00645 | 0.00842 | 0.0113 | 0.0153 | 0.0195
in n-pentanol | 0.00192 | 0.00239 | 0.00338 | 0.00461 | 0.00597 | 0.0073 | 0.00992 | 0.0125 | 0.0165 | 0.0221
in n-propanol | 0.00135 | 0.00172 | 0.00223 | 0.00307 | 0.00399 | 0.00509 | 0.00671 | 0.00877 | 0.0113 | 0.0147
in toluene | 0.0114 | 0.0143 | 0.0174 | 0.022 | 0.0271 | 0.0338 | 0.0417 | 0.0523 | 0.0638 | 0.0802
